Source: patent US20110081348A1, “FUNGAL SIGNALLING AND METABOLIC ENZYMES” (priority 2004, published 2011)

Target: recombinant truncated ILV34 (Aspergillus fumigatus, UniProt Q4X099)
Experiment: biochemical
Protocol: The assay for ILV34 is based upon the ability of this enzyme to dehydrate dihydroxyacid substrates to a keto acid. […] The appearance of the keto acid product can be monitored directly at 240 nm; alternatively it can be reacted with semicarbazide and sodium acetate and monitored at 250 nm.
Assays were carried out in 96- or 384-well plates. […] Samples were incubated at room temperature and at suitable intervals the reaction was stopped and developed by the addition of 25 p. 1 semicarbazide solution (1.26% w/v semicarbazide in 1.89% w/v sodium acetate solution). The samples were incubated for 15 mins after the final semicarbazide/sodium acetate addition and then read at 250 nm.

Chain of recombinant truncated ILV34 (Q4X099 30-606): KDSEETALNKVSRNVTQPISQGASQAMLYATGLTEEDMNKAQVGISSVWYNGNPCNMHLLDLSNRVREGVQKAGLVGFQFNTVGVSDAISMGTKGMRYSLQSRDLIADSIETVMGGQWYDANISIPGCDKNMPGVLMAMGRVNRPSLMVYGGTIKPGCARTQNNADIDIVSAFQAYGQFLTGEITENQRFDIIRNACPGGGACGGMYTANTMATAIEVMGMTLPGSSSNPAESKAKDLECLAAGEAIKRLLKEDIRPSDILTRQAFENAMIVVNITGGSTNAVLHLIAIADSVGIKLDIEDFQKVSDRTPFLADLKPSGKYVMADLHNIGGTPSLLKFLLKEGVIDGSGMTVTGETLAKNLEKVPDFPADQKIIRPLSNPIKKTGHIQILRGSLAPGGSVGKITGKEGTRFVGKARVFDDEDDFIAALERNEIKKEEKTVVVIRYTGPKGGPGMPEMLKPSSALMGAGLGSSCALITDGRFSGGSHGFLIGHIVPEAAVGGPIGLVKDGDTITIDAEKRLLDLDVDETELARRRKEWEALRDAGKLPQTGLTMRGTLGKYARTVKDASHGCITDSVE

## CC(C)C(O)C(=O)O (stereo not shown) [2-hydroxy-3-methylbutyric acid]
  IC50: ~10 mM
